From BindingDB's records for PubMed 32120325 (China Pharmaceutical University, 2020)

Assays:
[1] = biological target: T1, Signal transducer and activator of transcription 3 (Homo sapiens, UniProt P40763); assay: Inhibition of IL-6 stimulated STAT3 phosphorylation in human PBMC preincubated with compound for 10 to 15 mins followed by IL-6 stimulation and measured after 15 mins by ELISA analysis
[2] = biological target: T1, Signal transducer and activator of transcription 3; assay: Inhibition of IL-23 stimulated STAT3 […] in human naive T cell preincubated with compound for 10 to 15 mins followed by IL-23 stimulation and measured after 15 mins by ELISA analysis

T1 sequence (P40763 whole entry): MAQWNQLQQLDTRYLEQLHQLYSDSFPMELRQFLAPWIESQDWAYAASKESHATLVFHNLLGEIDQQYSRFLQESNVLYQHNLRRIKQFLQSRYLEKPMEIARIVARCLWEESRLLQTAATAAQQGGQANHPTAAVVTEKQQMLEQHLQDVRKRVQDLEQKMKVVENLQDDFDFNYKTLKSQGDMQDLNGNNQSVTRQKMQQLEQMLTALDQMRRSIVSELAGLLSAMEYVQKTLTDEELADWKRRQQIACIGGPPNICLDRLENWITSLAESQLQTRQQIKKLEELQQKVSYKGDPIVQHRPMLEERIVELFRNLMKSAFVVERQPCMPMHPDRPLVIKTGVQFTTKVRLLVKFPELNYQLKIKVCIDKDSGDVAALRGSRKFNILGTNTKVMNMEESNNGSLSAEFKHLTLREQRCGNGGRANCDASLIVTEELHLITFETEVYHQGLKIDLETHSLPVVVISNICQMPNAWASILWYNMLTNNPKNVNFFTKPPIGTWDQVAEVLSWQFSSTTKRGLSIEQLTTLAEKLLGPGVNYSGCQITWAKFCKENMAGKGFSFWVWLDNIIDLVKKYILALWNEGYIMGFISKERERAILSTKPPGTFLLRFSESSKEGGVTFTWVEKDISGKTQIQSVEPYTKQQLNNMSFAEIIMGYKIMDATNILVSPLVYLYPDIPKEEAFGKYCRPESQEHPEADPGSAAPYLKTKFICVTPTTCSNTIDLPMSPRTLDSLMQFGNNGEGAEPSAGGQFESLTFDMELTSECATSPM

- IC50 [1]: 44 nM
- IC50 [2]: 20 nM
Structure (SMILES): CCS(=O)(=O)N1CC(CC#N)(n2cc(-c3ncnc4[nH]ccc34)cn2)C1 [LY-3009104]
